From US20240123022A1, “A STABLE ANTI-ANGIOGENIC AND ANTI-INFLAMMATORY PHARMACEUTICAL FORMULATION AND PHARMACEUTICAL COMBINATION FOR TREATMENT AND PREVENTION OF PSORIASIS” (priority 2021, published 2024)

Tests used:
[1] = test system: isolated rabbit erythrocyte; type: cell-based
Experimental: This study was conducted to test whether IS217 induced haemolysis or not. The study was conducted in IV intended concentration.

[2] = test system: human keratinocytes (HaCaT) cells; experiment: Annexin-V externalization (pro-apoptotic effect); type: cell-based; conditions: 48 h, vs control
Experimental: Pro-apoptotic effect of IS217 was evaluated in human keratinocytes (HaCaT) cells by using the Annexin-V externalization. In this study, cells were plated and incubated for about 24 hours by using dulbecco's modified eagle's medium (DMEM) with about 10% fetal bovine serum (FBS) and cells were sera starved using about 0.1% FBS for about 3 hours. HaCaT cells were treated with IS217 at about 0 hours and about 24 hours in concentration range of from about 100 μg/ml to about 5000 μg/ml and incubated for about 24 hours. Curcumin (1 μM-50 μM) was used as positive control. After about 48 hours of first treatment, cells were incubated with Annexin-V reagent and subsequently analyzed by flow cytometry (Guava technologies) for identification of cells population.

HaCaT cells = experiment: TUNEL assay; type: cell-based, human; conditions: for % increase in TUNEL-Positive cell population w.r.t. control (untreated cells): 48 h
Experimental: Terminal deoxynucleotidyl transferase (TdT) dUTP Nick-End Labeling (TUNEL) assay has been designed to detect apoptotic cells that undergo extensive DNA degradation during the late stages of apoptosis. […] Cells were treated with test item (IS217 of 100 μg/ml-5000 μg/ml) and positive controls like curcumin (10 μM and 20 μM), anthralin (1 μM) and betullininc acid (10 μg/ml, 20 μg/ml, 50 μg/ml). After about 48 hours of treatment, cells were analysed for the apoptotic effect via TUNEL assay. Absorbance was measured using ELISA reader (Table 1).

[3] = Stability of IS217 API, long-term condition −20 ± 5° C.; type: physicochemical; conditions: for Appearance, change / Assessment of container closure system, change / Clarity of solution, change / Color of Solution, change / Color, change / Odor, change: long-term −20 ± 5° C.
Experimental: The purpose of stability testing is to provide evidence on how the quality of a drug substance or drug product varies with time under the influence of a variety of environmental factors such as temperature, humidity, etc. and to establish a re-test period for the drug substance or a shelf life for the drug product and recommended storage conditions. The study was conducted according to the WHO and Schedule-Y guidelines.
The drug substance is a lyophilized white fluffy powder, and it was filled at sterile condition in glass injection vial which has airlock-rubber capping. This container closure system is the same as or simulates the packaging proposed for storage and distribution.
This study has included testing of those attributes of the drug substance that are susceptible to change during storage and are likely to influence quality, safety and/or efficacy. The testing was covered, as appropriate, the physical and chemical attributes.
The following test attributes have been selected according to above said guidelines. • Appearance; odour; colour; colour of solution (when the drug substance is soluble in solvent); clarity of solution; degradation and assessment of container closure system
Testing frequency for long-term studies have been designed as per schedule Y. […]
The studies were conducted under appropriate storage conditions (with appropriate tolerances) that test drug substance thermal stability and its sensitivity to moisture. The drug substance is intended to store for 24 months. Accordingly, long term stability studies were done for 24 months. The details of the storage conditions have been furnished hereunder.
23.4: Long term stability study results Name of the Product: IS217; Batch size: 200 m·mol; Storage Conditions: −20±5° C.

[4] = Plasma stability in human plasma; type: in vitro ADME
Experimental: Following centrifugation, the supernatant was analyzed on HPLC-UV.

HUVEC cells = experiment: Tube formation assay in HUVEC cells (VEGF induced); type: cell-based, human; design: Tube formation assay results, Avg: scale not given here
Experimental: HUVEC cells were used as test system to determine angiogenic effect of IS217 by assessing the inhibitory effects of test item on endothelial cells tube formation. Prior to the tube formation assay, test item of concentration ranging 0.01 μg/ml to 1000 μg/ml were used to treat endothelial cells for its cytotoxicity effect to assess suitable concentration for tube formation assay. […] The cells corresponding to positive control group were treated with bevacizumab of concentration 1000 μg/ml. The degree of angiogenesis progression was assessed based on visual pattern recognition of photomicrographs of HUVEC cells.

For “H-FAKKFAKKFK-OH [IS217, H-Phe-Ala-Lys-Lys-Phe-Ala-Lys-Lys-Phe-Lys-OH]”, the “mean hemoglobin value compared with negative control and positive control” value [1] was “non-significant”, the mean haemolytic index ([1]; red cells of rabbit) was 0% and the “increase in necrotic cells” value ([2]; 100 μg/ml) was 3.6 fold. For the same substance, the “increase in late apoptotic cells” value ([2]; 1000 μg/ml) was 1.7 fold, the “increase in late apoptotic cells” value ([2]; 2000 μg/ml) was 3.4 fold and the “increase in necrotic cells” value ([2]; 2000 μg/ml) was 1.4 fold. For the same substance, the “increase in late apoptotic cells” value ([2]; 5000 μg/ml) was 5.6 fold, the “increase in necrotic cells” value ([2]; 5000 μg/ml) was 3.1 fold and the “increase in early apoptotic cells” value ([2]; HaCaT, 100-5000 μg/ml) was “no increase”. For the same substance, the “% increase in TUNEL-Positive cell population w.r.t. control (untreated cells)” value (shortened to “% increase”) (HaCaT cells; 500 μg/ml) was −25.0%, the “% increase” value (HaCaT cells; 1000 μg/ml) was −20.4% and the “% increase” value (HaCaT cells; 2000 μg/ml) was −25.4%. For the same substance, the “% increase” value (HaCaT cells; 5000 μg/ml) was −40.7%, the “increase in apoptotic cells (TUNEL positive population)” value (HaCaT cells; tested concentration range 100-5000 μg/ml, vs untreated) was “No increase” and the “stability of IS217 API” value ([3]; 6 months at long term stability condition −20 ± 5° C.) was “stable”. The “Appearance, change” value ([3]; 1st month) was “No change”, the “Assessment of container closure system, change” value (from here on “Assessment … change”) ([3]; 1st month) was “No change” and the “Clarity of solution, change” value ([3]; 1st month) was “No change”. The “Color of Solution, change” value ([3]; 1st month) was “No change”, the “Color, change” value ([3]; 1st month) was “No change” and the “Odor, change” value ([3]; 1st month) was “No change”. The “Appearance, change” value ([3]; 2nd month) was “No change”, the “Assessment … change” value ([3]; 2nd month) was “No change” and the “Clarity of solution, change” value ([3]; 2nd month) was “No change”. For the same substance, the “Color of Solution, change” value ([3]; 2nd month) was “No change”, the “Color, change” value ([3]; 2nd month) was “No change” and the “Odor, change” value ([3]; 2nd month) was “No change”. For the same substance, the “Appearance, change” value ([3]; 3rd month) was “No change”, the “Assessment … change” value ([3]; 3rd month) was “No change” and the “Clarity of solution, change” value ([3]; 3rd month) was “No change”. For the same substance, the “Color of Solution, change” value ([3]; 3rd month) was “No change”, the “Color, change” value ([3]; 3rd month) was “No change” and the “Odor, change” value ([3]; 3rd month) was “No change”. For the same substance, the “Appearance, change” value ([3]; 6th month) was “No change”, the “Assessment … change” value ([3]; 6th month) was “No change” and the “Clarity of solution, change” value ([3]; 6th month) was “No change”. For the same substance, the “Color of Solution, change” value ([3]; 6th month) was “No change”, the “Color, change” value ([3]; 6th month) was “No change” and the “Odor, change” value ([3]; 6th month) was “No change”. The “API calculated on the anhydrous basis (OAB)” value (from here on “API calculated”) ([3]; −20 ± 5° C., 1 M) was 98.98%, the “Related substances (By HPLC), Any Max. Impurity” value ([3]; −20 ± 5° C., 1 M) was 0.64% and the “Related substances (By HPLC), Total Impurity” value ([3]; −20 ± 5° C., 1 M) was 0.85%. The “Solubility (Soluble in water)” value ([3]; −20 ± 5° C., 1 M) was “Complies”, the “Water Content (By Karl Fischer-Titrator)” value ([3]; −20 ± 5° C., 1 M) was 4.89% w/w and the “API calculated” value ([3]; −20 ± 5° C., 2 M) was 99.14%. For the same substance, the “Related substances (By HPLC), Any Max. Impurity” value ([3]; −20 ± 5° C., 2 M) was 0.64%, the “Related substances (By HPLC), Total Impurity” value ([3]; −20 ± 5° C., 2 M) was 0.85% and the “Solubility (Soluble in water)” value ([3]; −20 ± 5° C., 2 M) was “Complies”. For the same substance, the “Water Content (By Karl Fischer-Titrator)” value ([3]; −20 ± 5° C., 2 M) was 4.83% w/w, the “API calculated” value ([3]; −20 ± 5° C., 3 M) was 99.15% and the “Related substances (By HPLC), Any Max. Impurity” value ([3]; −20 ± 5° C., 3 M) was 0.72%. For the same substance, the “Related substances (By HPLC), Total Impurity” value ([3]; −20 ± 5° C., 3 M) was 0.85%, the “Solubility (Soluble in water)” value ([3]; −20 ± 5° C., 3 M) was “Complies” and the “Water Content (By Karl Fischer-Titrator)” value ([3]; −20 ± 5° C., 3 M) was 4.52% w/w. The “API calculated” value ([3]; −20 ± 5° C., 6 M) was 99.40%, the “Related substances (By HPLC), Any Max. Impurity” value ([3]; −20 ± 5° C., 6 M) was 0.35% and the “Related substances (By HPLC), Total Impurity” value ([3]; −20 ± 5° C., 6 M) was 0.61%. The “Solubility (Soluble in water)” value ([3]; −20 ± 5° C., 6 M) was “Complies”, the “Water Content (By Karl Fischer-Titrator)” value ([3]; −20 ± 5° C., 6 M) was 4.99% w/w and the “API calculated” value ([3]; −20 ± 5° C., Initial) was 99.28%. The “Related substances (By HPLC), Any Max. Impurity” value ([3]; −20 ± 5° C., Initial) was 0.60%, the “Related substances (By HPLC), Total Impurity” value ([3]; −20 ± 5° C., Initial) was 0.72% and the Remark ([3]; −20 ± 5° C., Initial) was “Complies”. The “Solubility (Soluble in water)” value ([3]; −20 ± 5° C., Initial) was “Complies”, the “Water Content (By Karl Fischer-Titrator)” value ([3]; −20 ± 5° C., Initial) was 4.66% w/w and the remaining at 0.25 h, 100 μg/ml ([4]; human plasma, 15 minutes, read-out: IS217 remaining) was 90.7%. It also gave a remaining at 0.5 h, 100 μg/ml ([4]; human plasma, 30 minutes, read-out: IS217 remaining) of 105%, a remaining at 0.75 h, 100 μg/ml ([4]; human plasma, 45 minutes, read-out: IS217 remaining) of 85.2% and a remaining at 1 h, 100 μg/ml ([4]; human plasma, 60 minutes, read-out: IS217 remaining) of 91.1%. For the same substance, the plasma stability ([4]; human, plasma) was “stable in human plasma”, the half-life at 100 μg/ml ([4]; human, plasma, from 60 minutes incubation, read-out: calculated half-life in human plasma) was 6.92 h and the “Tube formation assay results, Avg” value (HUVEC cells; 100 μg + VEGF) was 2.55. The “Tube formation assay results, Avg” value (HUVEC cells; 100 μg, without VEGF) was 0.33, the “Tube formation assay results, Avg” value (HUVEC cells; 250 μg + VEGF) was 1.33 and the “Tube formation assay results, Avg” value (HUVEC cells; 250 μg, without VEGF) was 0.33. For the same substance, the “Tube formation assay results, Avg” value (HUVEC cells; 500 μg + VEGF) was 0.88, the “Tube formation assay results, Avg” value (HUVEC cells; 500 μg, without VEGF) was 0.33 and the “Tube formation assay results, Avg” value (HUVEC cells; 1000 μg + VEGF) was 0.55. The “Tube formation assay results, Avg” value (HUVEC cells; 1000 μg, without VEGF) was 0.33, the “inhibition of endothelial morphogenesis on matrigel” value (HUVEC cells; HUVEC, 1000 μg/ml) was “Complete inhibition” and the endothelial tube formation (HUVEC cells; HUVEC, all test concentrations 100 μg/ml to 1000 μg/ml) was “block endothelial tube formation”.
